In patent US6818235B2, “Beneficial control of energy balance in periparturient cattle” (Church & Dwight Co., Inc., priority 2001, dated 2004):

Legend:
Type in all cases: in vivo
Holstein cows [1] = test: Calculated net energy balance (net energy intake minus net energy secreted in milk)
From the text: (§1) One hundred and twenty Holstein cows who were to begin their second or greater lactation are randomly selected to receive one of four Conjugated Linoleic Acid (CLA) supplementation regimens. Control cows receive no supplemental CLA (0 CLA), cows offered Treatment 1 receive the cis-9, trans-11 CLA isomer (9, 11 CLA), cows offered Treatment 2 receive the trans-10, cis-12 CLA isomer (10, 12 CLA) and cows offered Treatment 3 receive both isomers in a 50:50 mix (mixed CLA).
Isomers of CLA are obtained at 85% purity and are converted to their amide form (unsubstituted) for a rumen bypass rate of 65%. The remaining 15% of the 85% pure CLA isomers are the other isomers of CLA. Treatments 1 and 2 are formulated to deliver 7 grams of each CLA isomer per cow/day at the intestinal level. […]
(§2) Other measurements include: Start-up milk production (defined as colostrum milk secreted in the first 24 hours postpartum) analyzed for milk fat and fatty acid composition; Daily milk production and composition (total fat and protein); Daily dry matter intake (DMI); Calculated net energy balance defined as net energy intake minus net energy secreted in milk expressed in megacalories (Mcal) per day.
Calculated average energy balance postpartum is actual daily […] minus actual daily milk energy outputs.

Holstein cows [2] = test: Milk production and composition of postpartum cows fed CLA amide supplements
From the text: as §1
(§3) Isomers of CLA are obtained at 85% purity and are converted to their amide form (unsubstituted) for a rumen bypass rate of 65%. The remaining 15% of the 85% pure CLA isomers are the other isomers of CLA. Treatments 1 and 2 are formulated to deliver 7 grams of each CLA isomer per cow/day at the intestinal level. Therefore, 13 g/cow/day of the respective CLA amides are included in the daily rations offered as Total Mixed Rations (TMR) (i.e., 13 g CLA amide×85% purity×65% rumen bypass=7.18 g intestinal CLA isomer). Treatment 3 is formulated to deliver 7 grams of both isomers per cow per day in the intestine resulting in a 26 g supplement.
Cows are fed their CLA treatments beginning 7 days prepartum and remain on the supplement until 35 days postpartum. To maintain the diets isoenergetic with equal amounts of added fat to the diets, the CLA amides are substituted for Megalac (calcium salts of palm fatty acids). Postpartum diets are offered immediately postpartum.
Prepartum diets are formulated to meet or exceed NRC (2000) requirements at a daily intake of 10.6 kg of DM. This is done to assure that all feed is consumed in a 24-hour period. Postpartum diets are also formulated to meet or exceed requirements for a cow producing (ca.) 45 kg of milk daily at ad libitum consumption of DM.
Cows are milked four times per day to assure maximum expression of production potential and are housed and fed in individual tie-stalls to obtain individual estimates of DMI.
as §2

[3] = system: mammary glands of Holstein cows; test: Mammary gland total parenchymal DNA and RNA-to-DNA ratio at day 15 postpartum; conditions: excised mammary glands, five cows per treatment
From the text: as §1, §3
Cows are fed their CLA treatments beginning 7 days prepartum and remain on the supplement until 35 days postpartum. To maintain the diets isoenergetic with equal amounts of added fat to the diets, the CLA amides are substituted for Megalac (calcium salts of palm fatty acids). […]

[4] = average for the next 34 days postpartum
[5] = colostrum, first 24 hours postpartum

SMILES: CCCCCC/C=C/C=C\CCCCCCCC(=O)O [9, 11 CLA, cis-9, trans-11 conjugated linoleic acid]
- Calculated average energy blance postpartum (Holstein cows [1]; [4]): −1.1c Mcal/d
- Calculated energy balance at the end of day-1 postpartum (Holstein cows [1]; end of day-1 postpartum): −3.6b Mcal
- FCM (fat corrected milk, 4% fat) (Holstein cows [2]; [4]): 36.88a kg/d
- Milk (Holstein cows [2]; [4]): 40.2a kg/d
- Milk fat (Holstein cows [2]; [4]): 1.04a kg/d
- Milk fat % (Holstein cows [2]; [4]): 3.45a %
- SCFA + MCFA:LCFA (ratio of short plus medium chain to long chain fatty acids in milk fat) (Holstein cows [2]; [4]): 58.42b
- Startup milk fat % (Holstein cows [2]; [5]): 8.9c %
- Startup milk fat kg (Holstein cows [2]; [5]): 1.44b kg
- Startup milk (Holstein cows [2]; colostrum, first 24 hours postpartum, 7 g of each CLA isomer/cow/day at intestinal level): 20.2a kg
- Startup FCM (fat corrected milk, 4% fat) (Holstein cows [2]; first 24 hours postpartum): 35.05c kg
- Total parenchymal DNA, lower compared to 0 CLA group [3]: 18%
